Laboratory results reported in patent US8986957B2, “Cell culture medium” (Novartis AG, priority 2010, dated 2015).

Assays:
[1] = test system: CHO cells expressing mAb3 and mAb4
Method: In a further set of experiments, choline chloride is added in various concentrations (40; 80; 120; 160, 200; 240; 500; 840; 1000; 3000 und 5000 mg/l in total) to powder growth medium. The media thus obtained are used for producing mAb3 and mAb4, respectively, generally as outlined above.
Normalized antibody concentrations, normalized viable cell densities, and viabilities, for mAb3 and in addition for mAb4 the normalized cell specific productivity for the whole duration of the cultivation (13 resp. 17 days) are further depicted in FIG. 14 to FIG. 24.

[2] = test system: CHO cells expressing mAb3; conditions: higher concentrations of choline chloride in production medium vs standard 240 mg/L
Method: Three aliquots of this parental cell line are transfected to express three different monoclonal antibodies mAb1, mAb2, mAb3, respectively.
All nine shake flasks (three for each experiment) are run under the same conditions, except for the medium. The conditions involve a fed-batch culture with two daily bolus feeds starting at days 3 and 5 with a feeding rate of 2 and 0.4% of the initial culture volume per day; a temperature shift from 36.5° C. to 33° C. at day 5; 10% CO2 in the incubator; a shaking rate of 150 rpm (stroke radius=25 mm). The cell growth/viability of the cells as well as the resulting titer of recombinant antibody expressed are determined.

[3] = choline chloride 3000 mg/l and more

In the case of `C[N+](C)(C)CCO.[Cl-]` [choline chloride], the “viability and antibody concentration” value ([1]; 40 mg/l choline chloride in total, after 13 or 17 days in culture) is reported as “lowest values”, the viability ([1]; all choline concentrations higher than 40 mg/l) is reported as “higher” and the cell growth [1, 3] is reported as “do not grow”. The “viability of the cells” value [1, 3] was “do not negatively affect the viability”, the normalized antibody concentration ([1]; choline chloride 3000 mg/l and more, after 13 or 17 days) was “below 1” and the “cell growth or polypeptide titer” value [2] was “did not result in improved cell growth or polypeptide titer”.
